Source: US10688099B2, “Methods for modulating the amount of RNA transcripts” (PTC Therapeutics, Inc., priority 2013, dated 2020)

What was measured:
[1] = tested on: splice junctions in human transcripts, PNN 1-46 cells; assay: RNA sequencing, splice-site (splice junction) analysis, Compound vs DMSO control; type: cell-based
Protocol: (§1) PNN 1-46 cells derived from a Type I SMA patient were treated with Compound 702 at 500 nM for 24 hours. RNA was purified with the RNeasy Mini Kit (Qiagen) for mRNA sequencing on HiSeq 2500 (Illumina Inc., San Diego, Calif.). The quality of the total RNA was assessed using UV spectrophotometry and agarose gel electrophoresis. Template DNA molecules suitable for cluster generation were prepared from 1 ug of total RNA samples using the TruSeq RNA Sample Preparation Kit v2 (Illumina Inc., San Diego, Calif.) according to the manufacturer's instructions. The size distribution of the libraries was estimated by electrophoresis on Agilent High Sensitivity Bioanalyzer microfluidic chips. The minimum and average sizes of the amplified libraries were determined to be >200 nucleotides and 300-340 nucleotides, respectively. Libraries were quantified using the KAPA Library Quantification Kit (KK4824, Kapa Biosystems, Boston, Mass.). The libraries were pooled at equimolar concentrations and diluted prior to loading onto the flow cell of the HiSeq 2500 (Illumina Inc., San Diego, Calif.) for both clustering and sequencing. The libraries were extended and bridge-amplified to create single sequence clusters using the TruSeq Rapid PE Cluster Kit—HS (Illumina Inc., San Diego, Calif.). Amplified clusters in the flow cell were then sequenced with 50-bp paired-end reads using the TruSeq Rapid SBS Kit—HS (Illumina Inc., San Diego, Calif.) in rapid run mode. Real time image analysis and base calling were performed on the HiSeq 2500 instrument using the HiSeq Sequencing Control Software (HCS). CASAVA software version 1.8 was used for de-multiplexing and production of FASTQ sequence files.
(§2) In order to estimate gene expression levels, paired-end RNAseq reads were subsequently mapped to RefSeq human transcripts (release 60) and the human genome (hg19) by using the short read aligner Bowtie2 (Langmead et al., 2012. Nature methods 9:357). The number of mapped reads for all transcript variants of a gene (counts) were combined into a single value and normalized denoted as rpkms (number of mapped reads per kilobase transcript per million sequenced reads, (Mortazavi et al., 2008. Nature methods 5:621)). The splice-site analysis was performed by mapping the paired-end RNASeq reads to RefSeq human transcripts using the alignment software GSNAP with default parameters and the option ‘sam-multiple-primaries’ in order to account for reads that were mapped multiple times to different splice variants. The number of reads spanning splice-sites was determined by applying the samtools mpileup software with default parameters for each transcript. Reads having an alignment start or end exactly on the splice-site were excluded from the analysis (Wu et al., 2005, Bioinformatics 21:1859; Wu et al., 2010, Bioinformatics 26:873; Li et al., 2009, Bioinformatics 25:2078). […]

[2] = tested on: human genes (total transcript abundance) in PNN 1-46 cells; assay: RNA sequencing, total transcript abundance at the gene level, Compound vs DMSO control; type: cell-based
Protocol: as §1, with “CASAVA software version 1.8 was used for de-multiplexing and production of FASTQ sequence files.” left out
as §2

[3] = 500 nM vs DMSO control, FIG. 2C

CCN1CCC(c2cc(C)c3nc(-c4cc5c(C)nc(C)cn5n4)cc(=O)n3c2)CC1 [Compound 702]
effect on STRN3 transcript variants [1, 3]: a switch between variants NM_014574 and NM_001083893 | genes to which the splice junctions with p>300 belong [1, 3]: SMN2, PDXDC1, STRN3, and pseudogene PDXDC2P | splice junctions with p>300 (p=Δ×Log2 FC) [1, 3]: 20 splice junctions | splice junctions with p>300 that belong to PDXDC1, all similarly affected [1, 3]: 15 splice junctions | splice junctions with p>100 (p=Δ×Log2 FC) ([1]; 500 nM vs DMSO control, out of about 300,000 splice junctions analyzed, FIG. 2C): 114 splice junctions | up spl j gene (gene with upregulated splice junctions) ([1]; PNN 1-46, 500 nM, 24 hours, splice junctions with p>100, * = pseudogene): STRN3 and APLP2 and TEX21P* and RCC1 and FOXM1 and VPS29 | genes up- or downregulated, respectively, at threshold |Log2FC| 1 ([2]; 500 nM vs DMSO control, 11,714 human genes with rpkm >1, FIG. 2B): six | change in total mRNA abundance of SMN2 ([2]; 500 nM vs DMSO control, PNN 1-46, 24 hours, FIG. 2A): no change | Log2FC of total transcript expression of POLN (DNA polymerase nu) ([2]; 500 nM vs DMSO control, only changed gene among the gene families of FIG. 3): > 1 | deregulation in gene families involved in DNA or RNA metabolism or cell survival ([2]; 500 nM, 24 hours, PNN 1-46, FIG. 3): No deregulation
